Measurements taken from patent publication US10959984B2, “Methods for treating cancer with RORγ inhibitors” (THE REGENTS OF THE UNIVERSITY OF CALIFORNIA, priority 2015, dated 2021).

Experiments:
AR = test: ARE reporter gene assay (5xARE-tk-luc) in 22Rv1 cells; type: cell-based, human
Experimental: Transient transfection and reporter gene assays were performed as previously described^49 with the following modifications. ARE reporter gene assays were performed by transfecting 22Rv1 cells with 5×ARE-tk-luc, pcDNA3.1-hAR and pCMV-β-gal for normalization. For transfection with constructs omitted for specific gene expression, corresponding empty vectors were used to ensure equal amount of total DNA used. Briefly, 22Rv1 cells seeded in 96-well plates in hormone-deprived medium supplemented with 10% cds-FBS (Hyclone) were transfected with lipofectamine 2000 (Life technology, Carlsbad, Calif., USA) and the indicated plasmid DNA. Cells were then treated at 12 hours after transfection with 3 nm R1881, indicated concentrations of RORγ antagonists or ENZ for another 24 hours before harvested for β-gal and luciferase assays. For RORE reporter gene assays, 4×AR-RORE-tk-luc was constructed by inserting four copies of the newly identified AR-RORE TTCTGGGTCA (SEQ ID NO: 1) into tk-luciferase reporter vector. AR-RORE mutant form (AR-RORE mut) contains sequences mutated from TTCTGGGTCA (SEQ ID NO: 1) to TTCTGAACGA (SEQ ID NO: 2). […] The luciferase and β-galactosidase were then analyzed with a Luciferase Assay Substrate (Promega) and Luminescent β-galactosidase Detection Kit II (Clontech). […]

[1] = mouse, in vivo
Experimental: (§1) Four-week-old male SCID C.B17 mice (for C4-2B and VCaP) or BALB/c nu/nu athymic mice (for 22Rv11 and PC-3) were purchased from Harlan Inc. For establishing tumors, 2×10^6 cells were suspended in total of 100 μL PBS/Matrigel (1:1) and implanted subcutaneously into the dorsal flank on both sides of the mice. Animal group size of six or more was estimated to have a high statistic power, based on power calculation (http://www.biomath.info/power/) and previous studies involving the same xenograft models^34,68. When the tumor volume was approximately 80 mm^3, the mice were randomized and then treated intraperitoneally (i.p.) with 100 μl of either vehicle or RORγ antagonists SR2211, XY011/8k (in a formulation of 15% Cremophor EL, Calbiochem, 82.5% PBS, and 2.5% DMSO) for five times per week. Tumor growth was monitored by calipers with volume calculated using the equation: (π/6 (length×width2)). Body weight during the course of the study was also monitored. At the end of the studies mice were killed and tumors were dissected and weighed. Additionally, prostate, seminal vesicle, testis, kidney, heart, lung, liver, epididymal fat pad and spleen were harvested and weighed. To assess the effect of combining RORγ antagonists and ENZ on the growth of castrated-resistant VCaP xenografts (CRPC-VCaP), first, SCID C.B17 mice were injected with VCaP cells as above to establish the tumors. […]

CRPC-VCaP xenografts = test: Castration-resistant VCaP (CRPC-VCaP) xenograft tumor growth; type: in vivo; conditions: castrated mice, ENZ alone, 10 mg/kg oral
Experimental: as §1

22Rv1 xenografts = test: 22Rv1 xenograft tumor growth; type: in vivo, mice; conditions: nude mice; SR2211 5 mg/kg i.p., 8k/E11 10 and 20 mg/kg i.p., five times per week (FIG. 3A)
Experimental: Four-week-old male SCID C.B17 mice (for C4-2B and VCaP) or BALB/c nu/nu athymic mice (for 22Rv11 and PC-3) were purchased from Harlan Inc. For establishing tumors, 2×10^6 cells were suspended in total of 100 μL PBS/Matrigel (1:1) and implanted subcutaneously into the dorsal flank on both sides of the mice. Animal group size of six or more was estimated to have a high statistic power, based on power calculation (http://www.biomath.info/power/) and previous studies involving the same xenograft models^34,68. When the tumor volume was approximately 80 mm^3, the mice were randomized and then treated intraperitoneally (i.p.) with 100 μl of either vehicle or RORγ antagonists SR2211, XY011/8k (in a formulation of 15% Cremophor EL, Calbiochem, 82.5% PBS, and 2.5% DMSO) for five times per week. Tumor growth was monitored by calipers with volume calculated using the equation: (π/6 (length×width2)). Body weight during the course of the study was also monitored. At the end of the studies mice were killed and tumors were dissected and weighed. Additionally, prostate, seminal vesicle, testis, kidney, heart, lung, liver, epididymal fat pad and spleen were harvested and weighed. To assess the effect of combining RORγ antagonists and ENZ on the growth of castrated-resistant VCaP xenografts (CRPC-VCaP), first, SCID C.B17 mice were injected with VCaP cells as above to establish the tumors. Then, mice bearing tumors of approximately 180 mm^3 were surgically castrated. They were then observed for tumor regression. Once tumors grew back to the pre-castration size, mice were randomized and treated with vehicle, 5 mg kg^−1 SR2211, 10 mg […] ENZ or a combination of 5 mg kg^−1 SR2211 and 10 mg kg^−1 ENZ. ENZ was given by oral gavage as previously described^68 and SR2211 was administered i.p as above. Mice were excluded from the study if bearing no tumor or tumor with size twice larger or smaller than the mean, at the time of randomization.

Structure (SMILES): CNC(=O)c1ccc(N2C(=S)N(c3ccc(C#N)c(C(F)(F)F)c3)C(=O)C2(C)C)cc1F [ENZ, enzalutamide]
- response of multimerized ARE-driven reporter (AR): repressed
- tolerability based on weight of whole body and vital organs, and general behaviors [1]: well tolerated
- CRPC tumor growth (CRPC-VCaP xenografts): only marginally effective
- growth of xenograft tumors (22Rv1 xenografts): did not show any significant inhibitory effect
